Data: ChEMBL document CHEMBL4800730 (2021)
Activity calls are given as the source filed them. No cut-off for these calls is given here.

What was measured:
[1] = target: D(2) dopamine receptor (Homo sapiens) (UniProt P14416); details: Compound concentration 10.0 uM
[2] = target: Serine/threonine-protein kinase pim-1 (Homo sapiens) (UniProt P11309); assay: PIM1 SelectScreen Kinase panel (LifeTechnologies); details: Compound concentration 1.0 uM
[3] = target: Rhodopsin kinase GRK7 (Homo sapiens) (UniProt Q8WTQ7); assay: GRK7 SelectScreen Kinase panel (LifeTechnologies); details: Compound concentration 1.0 uM
[4] = target: Serine/threonine-protein kinase BRSK1 (Homo sapiens) (UniProt Q8TDC3); assay: BRSK1 (SAD1) SelectScreen Kinase panel (LifeTechnologies); details: Compound concentration 1.0 uM
[5] = target: Cyclin-dependent kinase 2/cyclin A (Homo sapiens) (UniProt P24941+P20248+P78396); assay: CDK2/cyclin A SelectScreen Kinase panel (LifeTechnologies); format: protein-complex assay; details: Compound concentration 1.0 uM
[6] = target: Receptor-type tyrosine-protein kinase FLT3 (Homo sapiens) (UniProt P36888); assay: FLT3 SelectScreen Kinase panel (LifeTechnologies); details: Compound concentration 1.0 uM
[7] = target: Serine/threonine-protein kinase Chk2 (Homo sapiens) (UniProt O96017); assay: CHEK2 (CHK2) SelectScreen Kinase panel (LifeTechnologies); details: Compound concentration 1.0 uM
[8] = target: Alpha-2B adrenergic receptor (Homo sapiens) (UniProt P18089); details: Compound concentration 10.0 uM
[9] = target: G protein-coupled receptor kinase 6 (Homo sapiens) (UniProt P43250); assay: GRK6 SelectScreen Kinase panel (LifeTechnologies); details: Compound concentration 1.0 uM
[10] = system: MCF7; assay: CellTiter-Glo luminescent cell viability assay (CTG) with MCF-7 cells; format: functional, cell-based; details: Homo sapiens
[11] = target: Serine/threonine-protein kinase Sgk3 (Homo sapiens) (UniProt Q96BR1); assay: SGKL (SGK3) SelectScreen Kinase panel (LifeTechnologies); details: Compound concentration 1.0 uM
[12] = target: MAP kinase-activated protein kinase 2 (Homo sapiens) (UniProt P49137); assay: MAPKAPK2 SelectScreen Kinase panel (LifeTechnologies); details: Compound concentration 1.0 uM
[13] = target: 5-hydroxytryptamine receptor 2A (Homo sapiens) (UniProt P28223); details: Compound concentration 10.0 uM
[14] = target: Aurora kinase B (Homo sapiens) (UniProt Q96GD4); assay: AURKB (Aurora B) SelectScreen Kinase panel (LifeTechnologies); details: Compound concentration 1.0 uM
[15] = target: ALK tyrosine kinase receptor (Homo sapiens) (UniProt Q9UM73); assay: ALK SelectScreen Kinase panel (LifeTechnologies); details: Compound concentration 1.0 uM
[16] = target: Tyrosine-protein kinase ITK/TSK (Homo sapiens) (UniProt Q08881); assay: ITK SelectScreen Kinase panel (LifeTechnologies); details: Compound concentration 1.0 uM
[17] = target: Angiopoietin-1 receptor (Homo sapiens) (UniProt Q02763); assay: TEK (Tie2) SelectScreen Kinase panel (LifeTechnologies); details: Compound concentration 1.0 uM
[18] = target: Alpha-1D adrenergic receptor (Homo sapiens) (UniProt P25100); details: Compound concentration 10.0 uM
[19] = target: 3-phosphoinositide-dependent protein kinase 1 (Homo sapiens) (UniProt O15530); assay: PDK1 Direct SelectScreen Kinase panel (LifeTechnologies); details: Compound concentration 1.0 uM
[20] = target: Maternal embryonic leucine zipper kinase (Homo sapiens) (UniProt Q14680); assay: MELK SelectScreen Kinase panel (LifeTechnologies); details: Compound concentration 1.0 uM
[21] = target: Mitogen-activated protein kinase 1 (Homo sapiens) (UniProt P28482); assay: MAPK1 (ERK2) SelectScreen Kinase panel (LifeTechnologies); details: Compound concentration 1.0 uM
[22] = target: Serine/threonine-protein kinase D3 (Homo sapiens) (UniProt O94806); assay: PRKCN (PKD3) SelectScreen Kinase panel (LifeTechnologies); details: Compound concentration 1.0 uM
Sequence of Serine/threonine-protein kinase D3 (Homo sapiens) (O94806 whole entry): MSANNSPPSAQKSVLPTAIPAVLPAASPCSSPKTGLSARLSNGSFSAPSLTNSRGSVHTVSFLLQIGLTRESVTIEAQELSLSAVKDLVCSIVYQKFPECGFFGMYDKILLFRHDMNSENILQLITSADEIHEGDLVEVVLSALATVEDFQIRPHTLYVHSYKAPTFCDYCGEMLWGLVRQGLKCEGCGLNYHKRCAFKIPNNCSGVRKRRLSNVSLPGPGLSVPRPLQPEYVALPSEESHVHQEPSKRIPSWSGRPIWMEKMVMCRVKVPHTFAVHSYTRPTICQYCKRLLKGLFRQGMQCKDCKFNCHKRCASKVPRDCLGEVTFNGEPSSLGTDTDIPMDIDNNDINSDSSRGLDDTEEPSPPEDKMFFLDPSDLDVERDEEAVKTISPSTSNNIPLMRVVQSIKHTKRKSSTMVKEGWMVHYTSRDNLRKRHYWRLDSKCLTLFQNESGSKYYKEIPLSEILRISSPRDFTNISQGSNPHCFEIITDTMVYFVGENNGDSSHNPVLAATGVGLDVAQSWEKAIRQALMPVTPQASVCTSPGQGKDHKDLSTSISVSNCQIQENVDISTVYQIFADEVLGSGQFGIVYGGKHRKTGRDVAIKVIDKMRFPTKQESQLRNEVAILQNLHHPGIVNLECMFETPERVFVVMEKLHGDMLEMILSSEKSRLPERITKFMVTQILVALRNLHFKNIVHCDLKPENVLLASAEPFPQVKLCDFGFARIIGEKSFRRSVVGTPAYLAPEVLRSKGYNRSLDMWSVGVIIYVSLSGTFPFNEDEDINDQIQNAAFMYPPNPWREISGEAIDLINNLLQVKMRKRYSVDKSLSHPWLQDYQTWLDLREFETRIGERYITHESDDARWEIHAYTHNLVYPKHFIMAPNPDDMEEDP

[23] = target: cGMP-dependent protein kinase 2 (Homo sapiens) (UniProt Q13237); assay: PRKG2 (PKG2) SelectScreen Kinase panel (LifeTechnologies); details: Compound concentration 1.0 uM
[24] = target: DNA-dependent protein kinase catalytic subunit (Homo sapiens) (UniProt P78527); assay: DNA-PK SelectScreen Kinase panel (LifeTechnologies); details: Compound concentration 1.0 uM
Sequence of DNA-dependent protein kinase catalytic subunit (Homo sapiens) (P78527 whole entry): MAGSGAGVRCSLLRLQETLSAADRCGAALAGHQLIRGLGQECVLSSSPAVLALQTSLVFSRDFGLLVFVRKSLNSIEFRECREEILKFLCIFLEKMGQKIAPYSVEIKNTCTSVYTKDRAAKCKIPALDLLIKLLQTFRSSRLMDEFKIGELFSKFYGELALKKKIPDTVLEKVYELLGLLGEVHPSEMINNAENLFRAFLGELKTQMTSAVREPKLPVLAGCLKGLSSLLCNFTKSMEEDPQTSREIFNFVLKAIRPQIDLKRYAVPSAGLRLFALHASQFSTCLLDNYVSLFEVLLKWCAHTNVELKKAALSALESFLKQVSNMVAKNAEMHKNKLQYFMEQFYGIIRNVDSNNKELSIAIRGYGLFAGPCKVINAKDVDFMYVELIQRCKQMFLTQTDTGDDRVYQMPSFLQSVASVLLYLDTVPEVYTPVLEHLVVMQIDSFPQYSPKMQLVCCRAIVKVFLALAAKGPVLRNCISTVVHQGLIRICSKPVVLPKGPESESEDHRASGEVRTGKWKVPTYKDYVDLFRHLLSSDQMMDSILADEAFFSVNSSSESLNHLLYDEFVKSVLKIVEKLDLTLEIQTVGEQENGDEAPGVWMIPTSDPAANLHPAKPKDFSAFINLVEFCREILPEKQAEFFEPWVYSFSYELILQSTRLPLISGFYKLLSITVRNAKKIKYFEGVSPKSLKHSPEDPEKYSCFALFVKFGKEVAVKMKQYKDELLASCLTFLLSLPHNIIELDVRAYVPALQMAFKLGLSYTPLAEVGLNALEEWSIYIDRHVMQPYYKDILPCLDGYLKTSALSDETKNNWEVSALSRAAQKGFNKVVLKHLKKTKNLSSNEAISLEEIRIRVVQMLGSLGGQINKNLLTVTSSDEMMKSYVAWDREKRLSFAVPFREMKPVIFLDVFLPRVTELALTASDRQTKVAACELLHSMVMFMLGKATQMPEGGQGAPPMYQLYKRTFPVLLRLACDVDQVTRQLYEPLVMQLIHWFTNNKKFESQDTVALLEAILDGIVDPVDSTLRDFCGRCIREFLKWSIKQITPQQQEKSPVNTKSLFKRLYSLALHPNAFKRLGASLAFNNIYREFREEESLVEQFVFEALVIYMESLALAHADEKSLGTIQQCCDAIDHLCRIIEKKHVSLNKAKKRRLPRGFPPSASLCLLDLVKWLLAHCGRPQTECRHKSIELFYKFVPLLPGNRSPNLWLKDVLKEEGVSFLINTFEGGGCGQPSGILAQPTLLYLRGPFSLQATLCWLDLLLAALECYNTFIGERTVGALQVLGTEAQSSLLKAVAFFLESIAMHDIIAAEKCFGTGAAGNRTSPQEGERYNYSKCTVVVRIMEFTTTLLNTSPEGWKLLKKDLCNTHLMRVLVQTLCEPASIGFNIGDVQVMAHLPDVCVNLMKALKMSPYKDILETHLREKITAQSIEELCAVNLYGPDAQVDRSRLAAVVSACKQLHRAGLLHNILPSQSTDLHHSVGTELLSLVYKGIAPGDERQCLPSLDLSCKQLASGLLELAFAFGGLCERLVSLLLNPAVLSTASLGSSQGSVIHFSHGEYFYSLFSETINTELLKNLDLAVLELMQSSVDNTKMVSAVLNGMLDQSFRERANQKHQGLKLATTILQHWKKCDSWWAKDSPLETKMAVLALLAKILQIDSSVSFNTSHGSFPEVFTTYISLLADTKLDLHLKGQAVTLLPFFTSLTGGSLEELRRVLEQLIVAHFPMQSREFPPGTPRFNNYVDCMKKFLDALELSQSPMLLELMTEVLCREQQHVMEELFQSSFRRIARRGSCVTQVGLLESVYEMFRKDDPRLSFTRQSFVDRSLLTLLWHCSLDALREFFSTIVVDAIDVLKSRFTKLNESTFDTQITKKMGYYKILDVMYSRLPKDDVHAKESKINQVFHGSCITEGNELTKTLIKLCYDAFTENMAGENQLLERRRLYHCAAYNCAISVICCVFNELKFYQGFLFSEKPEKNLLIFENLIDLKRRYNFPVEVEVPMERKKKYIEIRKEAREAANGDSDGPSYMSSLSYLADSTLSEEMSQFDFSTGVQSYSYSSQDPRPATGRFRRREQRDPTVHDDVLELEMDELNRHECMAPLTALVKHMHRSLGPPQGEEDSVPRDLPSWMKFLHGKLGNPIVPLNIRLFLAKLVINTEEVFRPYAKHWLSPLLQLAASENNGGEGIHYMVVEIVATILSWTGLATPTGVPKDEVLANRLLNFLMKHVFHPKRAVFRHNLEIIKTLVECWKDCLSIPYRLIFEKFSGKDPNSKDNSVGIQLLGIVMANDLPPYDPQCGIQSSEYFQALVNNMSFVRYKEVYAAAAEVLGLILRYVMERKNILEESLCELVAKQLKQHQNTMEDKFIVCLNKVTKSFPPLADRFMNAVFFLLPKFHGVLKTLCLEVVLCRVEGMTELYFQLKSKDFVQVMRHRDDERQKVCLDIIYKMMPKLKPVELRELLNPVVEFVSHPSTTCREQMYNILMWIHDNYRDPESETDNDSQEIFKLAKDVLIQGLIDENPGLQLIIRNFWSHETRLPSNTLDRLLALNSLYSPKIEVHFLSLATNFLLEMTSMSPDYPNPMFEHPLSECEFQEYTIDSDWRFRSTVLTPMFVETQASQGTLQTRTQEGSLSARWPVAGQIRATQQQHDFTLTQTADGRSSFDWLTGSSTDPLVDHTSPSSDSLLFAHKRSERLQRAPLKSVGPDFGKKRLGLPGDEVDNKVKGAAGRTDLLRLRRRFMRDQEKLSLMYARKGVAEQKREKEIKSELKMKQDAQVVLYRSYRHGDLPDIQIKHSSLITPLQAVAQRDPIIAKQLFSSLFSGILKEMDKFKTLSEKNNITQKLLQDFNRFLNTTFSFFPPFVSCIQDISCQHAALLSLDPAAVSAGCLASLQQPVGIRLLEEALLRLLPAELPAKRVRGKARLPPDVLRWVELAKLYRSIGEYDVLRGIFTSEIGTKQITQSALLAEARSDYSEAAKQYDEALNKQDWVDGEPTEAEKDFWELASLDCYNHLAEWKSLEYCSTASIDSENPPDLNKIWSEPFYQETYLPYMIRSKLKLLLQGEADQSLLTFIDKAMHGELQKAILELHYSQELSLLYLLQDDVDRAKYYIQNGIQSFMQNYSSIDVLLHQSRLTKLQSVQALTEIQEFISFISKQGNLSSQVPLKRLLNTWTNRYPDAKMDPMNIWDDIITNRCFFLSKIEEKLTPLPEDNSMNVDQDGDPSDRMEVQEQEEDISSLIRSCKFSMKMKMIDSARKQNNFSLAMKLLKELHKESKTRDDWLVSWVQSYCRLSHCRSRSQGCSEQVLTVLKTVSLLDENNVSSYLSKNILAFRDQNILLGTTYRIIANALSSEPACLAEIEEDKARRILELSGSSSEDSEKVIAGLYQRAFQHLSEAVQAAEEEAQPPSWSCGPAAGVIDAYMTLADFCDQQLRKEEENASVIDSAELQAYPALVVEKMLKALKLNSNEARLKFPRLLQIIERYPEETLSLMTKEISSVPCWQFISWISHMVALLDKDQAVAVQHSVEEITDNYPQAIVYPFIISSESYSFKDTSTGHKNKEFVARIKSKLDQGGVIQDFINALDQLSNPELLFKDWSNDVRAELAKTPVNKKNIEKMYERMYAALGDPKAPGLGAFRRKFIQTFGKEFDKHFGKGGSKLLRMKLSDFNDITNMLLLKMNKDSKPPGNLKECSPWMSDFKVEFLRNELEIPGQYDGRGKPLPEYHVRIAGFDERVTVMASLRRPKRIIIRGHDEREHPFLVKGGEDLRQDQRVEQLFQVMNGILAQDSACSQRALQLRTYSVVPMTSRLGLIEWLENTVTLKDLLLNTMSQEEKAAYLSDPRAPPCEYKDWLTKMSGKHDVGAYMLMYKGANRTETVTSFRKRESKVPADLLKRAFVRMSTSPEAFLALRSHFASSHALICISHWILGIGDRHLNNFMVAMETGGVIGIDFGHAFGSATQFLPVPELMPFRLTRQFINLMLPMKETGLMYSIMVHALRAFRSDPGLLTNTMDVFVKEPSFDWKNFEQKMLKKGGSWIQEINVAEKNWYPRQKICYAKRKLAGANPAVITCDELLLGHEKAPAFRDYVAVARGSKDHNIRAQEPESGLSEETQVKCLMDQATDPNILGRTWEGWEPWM

[25] = target: AMPK alpha2/beta1/gamma1 (Homo sapiens) (UniProt P54646+P54619+Q9Y478); assay: AMPK A2/B1/G1 SelectScreen Kinase panel (LifeTechnologies); format: protein-complex assay; details: Compound concentration 1.0 uM
[26] = target: Glycogen synthase kinase-3 beta (Homo sapiens) (UniProt P49841); assay: GSK3B (GSK3 beta) SelectScreen Kinase panel (LifeTechnologies); details: Compound concentration 1.0 uM
[27] = target: Focal adhesion kinase 1 (Homo sapiens) (UniProt Q05397); assay: PTK2 (FAK) SelectScreen Kinase panel (LifeTechnologies); details: Compound concentration 1.0 uM
[28] = target: Tyrosine-protein kinase BTK (Homo sapiens) (UniProt Q06187); assay: BTK SelectScreen Kinase panel (LifeTechnologies); details: Compound concentration 1.0 uM
[29] = target: Tyrosine-protein kinase ABL1 (Homo sapiens) (UniProt P00519); assay: ABL1 SelectScreen Kinase panel (LifeTechnologies); details: Compound concentration 1.0 uM
[30] = target: Serine/threonine-protein kinase MARK2 (Homo sapiens) (UniProt Q7KZI7); assay: MARK2 SelectScreen Kinase panel (LifeTechnologies); details: Compound concentration 1.0 uM
[31] = target: Tyrosine-protein kinase SYK (Homo sapiens) (UniProt P43405); assay: SYK SelectScreen Kinase panel (LifeTechnologies); details: Compound concentration 1.0 uM
[32] = target: GABA-A receptor; anion channel (Rattus norvegicus) (UniProt O09028+P15431+P18506+P18508+P19969+P20236+P23574+P23576+P28471+P28473+P30191+P62813+P63079+P63138+Q91ZM7+Q9ES14); details: Compound concentration 10.0 uM
[33] = target: Muscarinic acetylcholine receptor M3 (Homo sapiens) (UniProt P20309); details: Compound concentration 10.0 uM
[34] = target: Beta-2 adrenergic receptor (Homo sapiens) (UniProt P07550); details: Compound concentration 10.0 uM
[35] = target: Mitogen-activated protein kinase 3 (Homo sapiens) (UniProt P27361); assay: MAPK3 (ERK1) SelectScreen Kinase panel (LifeTechnologies); details: Compound concentration 1.0 uM
[36] = target: Protein kinase C theta type (Homo sapiens) (UniProt Q04759); assay: PRKCQ (PKC theta) SelectScreen Kinase panel (LifeTechnologies); details: Compound concentration 1.0 uM
[37] = target: cAMP-dependent protein kinase catalytic subunit alpha (Homo sapiens) (UniProt P17612); assay: PRKACA (PKA) SelectScreen Kinase panel (LifeTechnologies); details: Compound concentration 1.0 uM
[38] = target: Serine/threonine-protein kinase Sgk2 (Homo sapiens) (UniProt Q9HBY8); assay: SGK2 SelectScreen Kinase panel (LifeTechnologies); details: Compound concentration 1.0 uM
[39] = target: Cyclin-dependent kinase 1/cyclin B (Homo sapiens) (UniProt P06493+P14635+Q8WWL7+O95067); assay: CDK1/cyclin B SelectScreen Kinase panel (LifeTechnologies); format: protein-complex assay; details: Compound concentration 1.0 uM
[40] = target: Ribosomal protein S6 kinase alpha-3 (Homo sapiens) (UniProt P51812); assay: RPS6KA3 (RSK2) SelectScreen Kinase panel (LifeTechnologies); details: Compound concentration 1.0 uM
[41] = target: Sodium-dependent serotonin transporter (Homo sapiens) (UniProt P31645); details: Compound concentration 10.0 uM
[42] = target: Serine/threonine-protein kinase D1 (Homo sapiens) (UniProt Q15139); assay: PRKD1 (PKC mu) SelectScreen Kinase panel (LifeTechnologies); details: Compound concentration 1.0 uM
[43] = target: Alpha-1A adrenergic receptor (Homo sapiens, UniProt P35348); assay: GPCRScan assay: inhibition of Alpha1A; design: radioligand conc. used [nm] 0.2 - 1.0, parental cells stable HEK

C=CC(=O)Nc1ccc2[nH]c(=O)n(C3CCN(Cc4ccc(-c5nc6cc[nH]c(=O)c6cc5-c5ccccc5)cc4)CC3)c2c1 [Borussertib]
inhibition [1]: 22.7% | inhibition [2]: 0% | inhibition [3]: -6% | inhibition [4]: 7% | inhibition [5]: 1% | inhibition [6]: 17% | inhibition [7]: 4% | inhibition [8]: 4.03% | inhibition [9]: 2% | EC50 [10]: 280 nM (active) | inhibition [11]: 2% | inhibition [12]: 30% | inhibition [13]: -6.26% | inhibition [14]: 7% | inhibition [15]: -2% | inhibition [16]: -1% | inhibition [17]: 13% | inhibition [18]: 22.1% | inhibition [19]: -4% | inhibition [20]: 30% | inhibition [21]: 3% | inhibition [22]: 14% | inhibition [23]: 2% | inhibition [24]: 0% | inhibition [25]: 20% | inhibition [26]: 20% | inhibition [27]: 4% | inhibition [28]: 6% | inhibition [29]: 2% | inhibition [30]: -2% | inhibition [31]: -3% | inhibition [32]: 12.3% | inhibition [33]: 5.83% | inhibition [34]: 18.3% | inhibition [35]: -3% | inhibition [36]: 35% | inhibition [37]: -3% | inhibition [38]: 6% | inhibition [39]: 3% | inhibition [40]: 21% | inhibition [41]: 2.16% | inhibition [42]: 10% | Ki [43]: 2660 nM
